Reference: US9371527B2, “Compositions and methods related to protein displacement therapy for myotonic distrophy” (University of Rochester, priority 2006, dated 2016)

Legend:
[1] = system: recombinant MBNL1 protein with (CUG)109 RNA; experiment: Gel shift assay of MBNL1 with (CUG)109 RNA in presence of CAG25 morpholino; type: binding, human; settings: increasing amounts of CAG25 morpholino
Text: Interaction of recombinant MBNL1 protein with (CUG)109 RNA was examined by gel shift assay, in the presence of increasing amounts of CAG25 morpholino.
Also disclosed herein are methods involving the interaction of soluble, fluorescently-labeled MBNL1 protein with poly(CUG)^109 tethered at the surface of a microtiter plate. Different commercial microtiter plates for capacity to bind in vitro transcribed poly(CUG)^109 and background activity (non-specific binding of labeled MBNL1). For tethering poly(CUG)^109 to plates, a “capture” oligodeoxynucleotide (ODN) complementary to the A-rich 3′ terminus of the poly(CUG)^109 transcript, labeled either with biotin or a reactive group at the 5′ end for attachment to the plate (shown in FIG. 3C in the case of biotin) was used. […] Next, the concentration of capture ODN that saturates binding sites (12.5 pmoles/100 μl/well) and the concentration of poly(CUG)^109 that saturates the capture ODN (of 5 pmole added per well, 0.5 pmole was bound to capture ODN) were determined. Additionally, conditions for fluorescence labeling of MBNL1 protein via conjugation between primary amines on protein and fluorescein-EX dyes (Molecular Probes) were determined. The detection threshold and range of linearity was determined for labeled protein in gels and microplates (FIG. 2B). […]

[2] = system: MBNL1 protein in ribonuclear foci; experiment: MBNL1 immunofluorescence after CAG25 morpholino injection into tibialis anterior; type: in vivo, HSA^LR transgenic mice; settings: intramuscular injection + electroporation, vs saline contralateral
Protocol: The morpholino was compromised entirely of CAG repeats and was 25 nucleotides in length (CAG25). CAG25 morpholino dissolved in phosphate buffered saline was injected into tibialis anterior muscle of HSA^LR transgenic mice, followed by electroporation to facilitate entry into muscle cells. The contralateral tibialis anterior muscle was injected with saline alone, followed by electroporation. The distribution of MBNL1 in tibialis anterior was determined by immunofluorescence with anti-MBNL1 antibody A2764. In muscle injected with saline, MBNL1 was sequestered in ribonuclear foci (nuclei are counterstained with DAPI).

[3] = system: SERCA1 alternative splicing; experiment: RT-PCR of SERCA1 alternative splicing after CAG25 morpholino; type: in vivo, HSA^LR transgenic mice; settings: 3 weeks following CAG25 injection, tibialis anterior, 4 mice
Text: Morpholino-treated muscle is indicated by “+”. Results from tibialis anterior in the opposite hindlimb, injected with saline alone, are indicated by “−”. The side of morpholino injection was randomly determined, and this assignment remained blinded until after the splicing analysis was completed. Het. dupl. indicates a heteroduplex PCR product.

[4] = system: ZASP alternative splicing; experiment: RT-PCR of ZASP alternative splicing after CAG25 morpholino; type: in vivo, HSA^LR transgenic mice; settings: 3 weeks following CAG25 injection, tibialis anterior
Text: Morpholino-treated muscle is indicated by “+”. Results from tibialis anterior in the opposite hindlimb, injected with saline alone, are indicated by “−”. The side of morpholino injection was randomly determined, and this assignment remained blinded until after the splicing analysis was completed.

[5] = system: ClC-1 exon 7a alternative splicing; experiment: RT-PCR of ClC-1 alternative splicing after CAG25 morpholino; type: in vivo, HSA^LR transgenic mice; settings: tibialis anterior, vs saline contralateral
Text: Adult wild-type (WT) mice show low levels of exon 7a inclusion. In HSA^LR transgenic mice, the fraction of ClC-1 splice products that include exon 7a is increased. Inclusion of exon 7a causes a frame shift and creates a premature termination codon that truncates most of the ClC-1 coding sequence. Of note, transcripts that include exon 7a have accelerated degradation via nonsense mediated decay, therefore they are underrepresented at steady state and on this gel. The higher bands on the gel are other alternative splice products, as shown (Mankodi et al, Molecular Cell 10:35-44, 2002.) In HSA^LR transgenic mice, injection of CAG morpholino into tibialis anterior improved the defect of ClC-1 alternative splicing. Morpholino-treated muscle is indicated by “+”. Results from tibialis anterior in the opposite hindlimb, injected with saline alone, are indicated by “−”.

ClC-1 chloride channel = experiment: ClC-1 immunofluorescence after CAG25 morpholino; type: in vivo, HSA^LR transgenic mice; settings: 3 weeks following injection
Text: Immunofluorescence for ClC-1 chloride channel is shown in sections of tibialis anterior muscle from HSA^LR transgenic mice. Muscle fibers show mosaic expression of ClC-1 in HSA^LR muscle injected with saline. Some of these fibers are completely lacking in ClC-1 protein.

HSA^LR transgenic mice = experiment: Electromyography of myotonia after CAG25 morpholino; type: in vivo; settings: p<0.001
Text: FIG. 17 uses Electromyography to show the improvement of myotonia at 3 and 6 weeks after injection of CAG25 morpholino into tibialis anterior of HSA^LR transgenic mice. Myotonia is a state of muscle hyperexcitability in which muscle fibers display repetitive action potentials. Myotonia in the HSA^LR transgenic mouse model of myotonic dystrophy is caused by abnormal regulation of alternative splicing for ClC-1 and subsequent reduction of chloride ion channels in muscle fibers. A parallel abnormality of ClC-1 alternative splicing exists in human myotonic dystrophy. […] For each mouse, CAG25 morpholino dissolved in saline was injected into tibialis anterior muscle of one hindlimb, whereas saline alone was injected into tibialis anterior on the opposite side. The side of morpholino injection was randomly assigned. Electromyography was performed by a blinded examiner Severity of myotonia was graded on a 4 point scale: 0=no myotonic, 1=occasional myotonic discharge (fewer than 25% of needle insertions), 2=abundant myotonic discharges (25-75% of needle insertions), and 3=florid myotonia (myotonic discharges in nearly every needle insertion).

(CUG)109 hairpins = experiment: Non-denaturing gel: PNA-CAG interaction with fluorescein-labeled (CUG)109 transcript; type: binding; settings: (CUG)109 10 nM, PNA 8-0.25 μM, 30 min
Protocol: (§1) FIGS. 30A and 30B show protein displacement therapy with peptide nucleic acid (PNA) oligomers composed of CAG repeats.
(§2) Previously it was shown that expanded CUG repeat RNA forms stable hairpin structures (Tian B, et al. RNA 2000; 6:79-87). […] This transcript was incubated 30 min with different concentrations (8, 4, 2, 1, 0.5, 0.25 μM) of PNAs containing different length of CAG repeat sequence (PNA-CAG-6, Nterm-CAGCAG; PNA-CAG-9, Nterm-CAGCAGCAG; PNA-CAG-12, Nterm-CAGCAGCAGCAG (SEQ ID NO: 14); or PNA-CAG-15, Nterm-CAGCAGCAGCAGCAG) (SEQ ID NO: 15). FIG. 30B provides a variation including 5 PNA concentrations (4, 2, 1, 0.5, 0.25 μM) and after additional 30 min incubation step with recombinant MBNL1 (200 nM). Lane “C” in each panel is a control showing migration of fluorescein-labeled (CUG)109 transcript without PNA or MBNL1. Rapid migration of this transcript is caused by hairpin formation. […] Lanes “C+” in panel “B” show controls that contain (CUG)109 transcript and MBNL1 protein without PNA. These lanes show diffuse smear of (CUG)109 transcript, due to formation of heterogenous high molecular weight RNA-protein complexes. Addition of PNA displaces the MBNL1 protein from expanded CUG repeat RNA, disrupting these complexes and reconstituting a sharp band of (CUG)109 transcript. […]

[6] = system: interaction of (CUG)109 RNA with MBNL1 protein; experiment: Non-denaturing gel: PNA-CAG displacement of MBNL1 from (CUG)109 RNA; type: binding; settings: PNA 4-0.25 μM, then MBNL1 200 nM 30 min
Protocol: as §1, §2

[7] = target: T1, interaction of recombinant MBNL1 protein with (CUG)109 RNA (Homo sapiens, UniProt Q9NR56); experiment: Filter binding screening assay for inhibitors of MBNL1-(CUG)109 RNA interaction; settings: compound+(CUG)109 RNA 5 minutes, then recombinant MBNL1 15 minutes, among 9 aminoglycoside compounds tested
T1 construct: GST (with Prescission protease cleavage site) (N); made in house; host or cells: E. coli BL21(DE3)
T1 sequence (Q9NR56 1-382 isoform Q9NR56-5): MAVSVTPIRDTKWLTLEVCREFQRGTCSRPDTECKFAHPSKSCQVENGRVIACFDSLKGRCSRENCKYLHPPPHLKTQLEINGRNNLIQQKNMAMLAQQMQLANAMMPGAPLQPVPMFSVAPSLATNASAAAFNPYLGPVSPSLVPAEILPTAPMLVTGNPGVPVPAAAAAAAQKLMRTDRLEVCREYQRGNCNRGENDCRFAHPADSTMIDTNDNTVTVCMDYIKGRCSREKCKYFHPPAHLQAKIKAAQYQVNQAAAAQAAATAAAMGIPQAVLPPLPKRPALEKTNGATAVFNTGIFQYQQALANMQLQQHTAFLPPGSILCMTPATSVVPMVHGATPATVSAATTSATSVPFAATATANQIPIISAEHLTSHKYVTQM
Protocol: The order of addition was compound+(CUG)109 RNA (incubate 5 minutes), followed by recombinant MBNL1 protein (15 minute incubation), followed by application to filter.
Next, optimal conditions were defined (ionic-strength, monovalent cations, Mg^++ and other additions, temperature) for MBNL1-poly(CUG)^109 binding in solution. All forms of recombinant MBNL1 that were tested (GST fused or cleaved, full-length or truncation of C terminal hydrophobic region, 41 or 42 kD isoform) bind to poly(CUG)^109 at low protein concentration (FIG. 3, Kd values ˜10 nM), as determined by nitrocellulose filter binding assays. In this assay, nonspecific binding of labeled RNA to nitrocellulose was very low (<0.2% of maximal positive signal). As described below, disclosed herein are methods comprising a non-radioactive microtiter plate filter binding assay similar to the one used to examine binding activities of different forms of recombinant MBNL1 in FIG. 3.
The two components of this assay, fluorescence-labeled poly(CUG)^109 (FIG. 2B) and recombinant MBNL1 (FIG. 2A), have been developed and optimal conditions for MBNL1 binding to poly(CUG)^exp have been defined (50 mM Tris pH 8.0, 50 mM NaCl, 50 mM KCl, 1 mM Mg^++, 0.1 mM DTT) (see Preliminary Studies). Pilot binding assays have been carried out using nitrocellulose filters (FIG. 3A). […]

[8] = target: T2, interaction of CUG repeat RNA with recombinant MBNL1 protein (Homo sapiens, UniProt Q9NR56); experiment: Fluorescence anisotropy assay for inhibitors of CUG repeat RNA-MBNL1 interaction; type: binding; settings: (CUG)36 transcript 2 nM, aminoglycoside 10 or 50 μM, MBNL1 100 nM
T2 construct: GST (with Prescission protease cleavage site) (N); made in house; host or cells: E. coli BL21(DE3)
T2 sequence (Q9NR56 1-382 isoform Q9NR56-5): as above
Protocol: Fluorescein-labeled (CUG)36 transcript (2 nM) was incubated first with aminoglycoside compound (10 or 50 μM) and then with excess amount of recombinant MBNL1 protein (100 nM). To calculate the fraction of CUG repeat RNA that remains bound to MBNL1 protein (“% bound CUG^exp”, vertical axis), results are expressed as the percentage of maximal fluorescence anisotropy in assays from which aminoglycosides were omitted. […] Values are the average +/−SD from three measurements.
Fluorescein-labeled (CUG)36 RNA (2 nM) was incubated with MBNL1 protein (100 nM) and anisotropy was measured at time points ranging from 1 to 90 minutes. Increasing values for fluorescence anisotropy indicate interaction of fluorescein-labeled (CUG)36 transcript with MBNL1 protein.
MBNL1 protein is known to bind CUG repeat RNAs that form a stable secondary structure (hairpin structure). Aminoglycoside antibiotics were examined to determine whether these compounds can inhibit the interaction of MBNL1 protein with CUG repeat RNA. Aminoglycosides were selected because they are known to bind structured RNA. […] To calculate the fraction of CUG repeat RNA that remains bound to MBNL1 protein (“% bound CUG^exp”, vertical axis), results are expressed as the percentage of maximal fluorescence anisotropy in assays from which aminoglycosides were omitted. […]

CAG25 morpholino: morpholino comprised entirely of CAG repeats, 25 nucleotides in length (antisense AGCAGCAGCAGCAGCAGCAGCAGCA; all phosphorodiamidate morpholino (PMO))
inhibition of interaction of MBNL1-poly(CUG)^exp RNA in vitro [1]: inhibits the interaction
distribution of MBNL1 in tibialis anterior nuclei [2]: more widely distributed throughout the nucleus
SERCA1 alternative splicing [3]: improved the defect of SERCA1 alternative splicing
ZASP alternative splicing [4]: improved regulation of alternative splicing for ZASP
ClC-1 alternative splicing (exon 7a) [5]: improved the alternative splicing of ClC-1
expression of ClC-1 chloride channel at the surface membrane (ClC-1 chloride channel): increased expression ClC-1 protein at the surface membrane
myotonia severity (EMG) (HSA^LR transgenic mice; 3 weeks after injection): significant reduction of myotonia
myotonia severity (EMG) (HSA^LR transgenic mice; 6 weeks after injection): significant reduction of myotonia

PNA-CAG-12: peptide nucleic acid Nterm-CAGCAGCAGCAG (all peptide nucleic acid (PNA))
interaction with expanded CUG repeat hairpin structures (gel migration of (CUG)109 transcript) ((CUG)109 hairpins): can invade (CUG)109 hairpins
inhibition of interaction of (CUG)109 RNA with MBNL1 protein [6]: inhibit the interaction of (CUG)109 RNA with MBNL1 protein

PNA-CAG-15: peptide nucleic acid Nterm-CAGCAGCAGCAGCAG (all peptide nucleic acid (PNA))
interaction with expanded CUG repeat hairpin structures (gel migration of (CUG)109 transcript) ((CUG)109 hairpins): can invade (CUG)109 hairpins
inhibition of interaction of (CUG)109 RNA with MBNL1 protein [6]: inhibit the interaction of (CUG)109 RNA with MBNL1 protein

gentamicin
activity to inhibit formation of MBNL1-poly(CUG)^exp RNA-protein complexes [7]: highest activity

neomycin
activity to inhibit formation of MBNL1-poly(CUG)^exp RNA-protein complexes [7]: highest activity
inhibition of MBNL1 binding to CUG repeat RNA (% bound CUG^exp) [8]: strongest inhibition
